Data taken from PubChem BioAssay AID248 (DTP/NCI, 2004).
Values joined by “and” are separate entries in the source; they are usually repeats but may differ in a detail not shown here. Identical values can stand only once. Toxic doses and inconclusive results are not listed. No stated cut-off is given here; in the data, active means T/C of 150% or more; inactive means T/C below 125%.

Tested on: L1210 leukemia ip in BDF1 mice, survival T/C
Assay: NCI In Vivo Anticancer Drug Screen. Data for tumor model L1210 Leukemia (intraperitoneal) in B6D2F1 (BDF1) mice
Settings: endpoint: mean survival time, higher = longer survival
Method in brief: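 Transplanted-tumor mice were given test agent; controls received vehicle only. Survival readings from the two groups were divided (treated over control).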

[1] = dose: 100.0 mg/kg/injection, schedule: Q04DX003 (ip), vehicle: saline with Tween-80
[2] = dose: 200.0 mg/kg/injection, schedule: Q04DX003 (ip), vehicle: saline with Tween-80
[3] = dose: 400.0 mg/kg/injection, schedule: Q04DX003 (ip), vehicle: saline with Tween-80
[4] = dose: 100.0 mg/kg/injection, schedule: Q01DX001 (ip), vehicle: saline
[5] = dose: 200.0 mg/kg/injection, schedule: Q01DX001 (ip), vehicle: saline
[6] = dose: 400.0 mg/kg/injection, schedule: Q01DX001 (ip), vehicle: saline
[7] = dose: 100.0 mg/kg/injection, schedule: Q01DX009 (ip), vehicle: Klucel (hydroxypropylcellulose) (HPC)
[8] = dose: 100.0 mg/kg/injection, schedule: Q04DX003 (ip), vehicle: Klucel (hydroxypropylcellulose) (HPC)
[9] = dose: 200.0 mg/kg/injection, schedule: Q01DX009 (ip), vehicle: Klucel (hydroxypropylcellulose) (HPC)
[10] = dose: 75.0 mg/kg/injection, schedule: Q01DX001 (ip), vehicle: saline
[11] = dose: 50.0 mg/kg/injection, schedule: Q01DX009 (ip), vehicle: saline
[12] = dose: 100.0 mg/kg/injection, schedule: Q01DX009 (ip), vehicle: saline
[13] = dose: 100.0 mg/kg/injection, schedule: Q04DX003 (ip), vehicle: saline
[14] = dose: 200.0 mg/kg/injection, schedule: Q01DX009 (ip), vehicle: saline
[15] = dose: 200.0 mg/kg/injection, schedule: Q04DX003 (ip), vehicle: saline
[16] = dose: 400.0 mg/kg/injection, schedule: Q04DX003 (ip), vehicle: saline
[17] = dose: 400.0 mg/kg/injection, schedule: Q01DX009 (ip), vehicle: saline

Measured: T/C

CC1(C)c2ccccc2N(CCCN2CCCCC2)c2ccccc21
inactive: dose: 9.0 mg/kg/injection, schedule: Q01DX001 (ip), vehicle: water 101 % of control | dose: 18.0 mg/kg/injection, schedule: Q01DX001 (ip), vehicle: water 93 % of control | dose: 36.0 mg/kg/injection, schedule: Q01DX001 (ip), vehicle: water 101 % of control | dose: 50.0 mg/kg/injection, schedule: Q01DX001 (ip), vehicle: water 91 % of control | dose: 100.0 mg/kg/injection, schedule: Q01DX001 (ip), vehicle: water 91 % of control | dose: 200.0 mg/kg/injection, schedule: Q01DX001 (ip), vehicle: water 100 % of control

Cc1c(-c2ccccc2)sc(N)c1C#N
inactive: dose: 100.0 mg/kg/injection, schedule: Q01DX001 (ip), vehicle: saline with Tween-80 94 % of control | dose: 100.0 mg/kg/injection, schedule: Q01DX009 (ip), vehicle: saline with Tween-80 93 % of control and 100 % of control | dose: 100.0 mg/kg/injection, schedule: Q04DX002 (ip), vehicle: saline with Tween-80 94 % of control | [1] 95 % of control | dose: 200.0 mg/kg/injection, schedule: Q01DX001 (ip), vehicle: saline with Tween-80 93 % of control | dose: 200.0 mg/kg/injection, schedule: Q01DX009 (ip), vehicle: saline with Tween-80 92 % of control | dose: 200.0 mg/kg/injection, schedule: Q04DX002 (ip), vehicle: saline with Tween-80 94 % of control and 98 % of control | [2] 100 % of control | dose: 400.0 mg/kg/injection, schedule: Q01DX001 (ip), vehicle: saline with Tween-80 93 % of control | dose: 400.0 mg/kg/injection, schedule: Q01DX009 (ip), vehicle: saline with Tween-80 100 % of control and 87 % of control | dose: 400.0 mg/kg/injection, schedule: Q04DX002 (ip), vehicle: saline with Tween-80 96 % of control | [3] 100 % of control

CN(C)S(=O)(=O)c1ccc(NC(=O)OC2CCCCC2)cc1
inactive: [4] 96 % of control | [5] 91 % of control | [6] 96 % of control

CN(C)/C=N/NC(=O)C(O)c1ccccc1 (stereo not given)
inactive: [1] 116 % of control | [2] 103 % of control | [3] 111 % of control

Oc1cc2ccccc2c2c1ccc1ccccc12
inactive: [4] 102 % of control | [5] 111 % of control | [6] 102 % of control

[B-][N+](C)(C)C
inactive: dose: 3.13 mg/kg/injection, schedule: Q01DX001 (ip), vehicle: Klucel (hydroxypropylcellulose) (HPC) 99 % of control | dose: 6.25 mg/kg/injection, schedule: Q01DX001 (ip), vehicle: Klucel (hydroxypropylcellulose) (HPC) 101 % of control | dose: 12.5 mg/kg/injection, schedule: Q01DX001 (ip), vehicle: Klucel (hydroxypropylcellulose) (HPC) 99 % of control | dose: 25.0 mg/kg/injection, schedule: Q01DX001 (ip), vehicle: Klucel (hydroxypropylcellulose) (HPC) 106 % of control | dose: 50.0 mg/kg/injection, schedule: Q01DX001 (ip), vehicle: Klucel (hydroxypropylcellulose) (HPC) 109 % of control | dose: 100.0 mg/kg/injection, schedule: Q01DX001 (ip), vehicle: Klucel (hydroxypropylcellulose) (HPC) 103 % of control

CCCCCCCNC(=O)Nc1cccc(Cl)c1C
inactive: dose: 25.0 mg/kg/injection, schedule: Q04DX003 (ip), vehicle: Klucel (hydroxypropylcellulose) (HPC) 103 % of control | dose: 50.0 mg/kg/injection, schedule: Q01DX009 (ip), vehicle: Klucel (hydroxypropylcellulose) (HPC) 101 % of control | dose: 50.0 mg/kg/injection, schedule: Q04DX003 (ip), vehicle: Klucel (hydroxypropylcellulose) (HPC) 101 % of control | [7] 89 % of control | [8] 95 % of control and 101 % of control | [9] 93 % of control

OC(c1nc2ccccc2[nH]1)C(O)c1nc2ccccc2[nH]1 (stereo not given)
inactive: [10] 102 % of control | dose: 150.0 mg/kg/injection, schedule: Q01DX001 (ip), vehicle: saline 109 % of control | dose: 300.0 mg/kg/injection, schedule: Q01DX001 (ip), vehicle: saline 102 % of control

Nc1cnccc1NCC(O)c1ccccc1 (stereo not given)
inactive: [4] 95 % of control | [5] 101 % of control | [6] 86 % of control

COc1cc2c(cc1OC)C(CN)C2 (stereo not given)
inactive: [11] 101 % of control | [12] 103 % of control | [13] 116 % of control | [14] 89 % of control | [15] 119 % of control

CC(=O)N=C1CCCC1C#N (stereo not given)
inactive: [7] 101 % of control | [13] 105 % of control | [9] 101 % of control | [15] 109 % of control | dose: 400.0 mg/kg/injection, schedule: Q01DX009 (ip), vehicle: Klucel (hydroxypropylcellulose) (HPC) 95 % of control | [16] 100 % of control

CC(=O)Nc1cc2c(cc1Cl)-c1ccc(F)cc1C2=O
inactive: [8] 97 % of control | dose: 200.0 mg/kg/injection, schedule: Q04DX003 (ip), vehicle: Klucel (hydroxypropylcellulose) (HPC) 103 % of control | dose: 400.0 mg/kg/injection, schedule: Q04DX003 (ip), vehicle: Klucel (hydroxypropylcellulose) (HPC) 105 % of control

CC12CCC(C(N)C1=O)C2(C)C (stereo not given)
inactive: [12] 103 % of control | [13] 98 % of control | [14] 105 % of control | [15] 98 % of control | [17] 94 % of control | [16] 97 % of control

O=P(O)(c1cc(Cl)cc(Cl)c1)c1cc(Cl)cc(Cl)c1
inactive: dose: 18.8 mg/kg/injection, schedule: Q01DX001 (ip), vehicle: saline 96 % of control | dose: 37.5 mg/kg/injection, schedule: Q01DX001 (ip), vehicle: saline 96 % of control | [10] 96 % of control

COc1cc(C2CC(C)=C(C)CC2C(=O)O)cc(OC)c1OC (stereo not given)
inactive: [1] 92 % of control | [2] 97 % of control | [3] 96 % of control

CNc1ccccc1C(=O)N/N=C/c1ccccc1Cl
inactive: dose: 100.0 mg/kg/injection, schedule: Q04DX002 (ip), vehicle: Klucel (hydroxypropylcellulose) (HPC) 108 % of control | dose: 200.0 mg/kg/injection, schedule: Q04DX002 (ip), vehicle: Klucel (hydroxypropylcellulose) (HPC) 93 % of control | dose: 400.0 mg/kg/injection, schedule: Q04DX002 (ip), vehicle: Klucel (hydroxypropylcellulose) (HPC) 86 % of control

CN=C(Nc1ccccc1)SC
inactive: dose: 25.0 mg/kg/injection, schedule: Q01DX009 (ip), vehicle: saline 92 % of control | dose: 25.0 mg/kg/injection, schedule: Q04DX003 (ip), vehicle: saline 94 % of control | [11] 105 % of control | dose: 50.0 mg/kg/injection, schedule: Q04DX003 (ip), vehicle: saline 97 % of control | [4] 104 % of control | [12] 105 % of control | [13] 97 % of control

CC(=O)Nc1ccc(/C=N/Nc2c([N+](=O)[O-])cc(C)cc2[N+](=O)[O-])cc1
inactive: [12] 98 % of control | [14] 96 % of control | [17] 94 % of control

O=C1CCSC(=S)N1c1cccc(C(F)(F)F)c1
inactive: dose: 25.0 mg/kg/injection, schedule: Q04DX003 (ip), vehicle: saline with Tween-80 101 % of control | dose: 50.0 mg/kg/injection, schedule: Q04DX003 (ip), vehicle: saline with Tween-80 104 % of control | [1] 104 % of control

O=S(=O)(CCCCl)N1CCOCC1
inactive: [4] 102 % of control | [13] 97 % of control | [5] 106 % of control | [15] 106 % of control | [6] 100 % of control | [16] 95 % of control

CC1(C)OC2C(=O)C3COC(O3)C2O1 (stereo not given)
inactive: dose: 100.0 mg/kg/injection, schedule: Q01DX001 (ip), vehicle: carboxymethylcellulose (CMC) 106 % of control | dose: 200.0 mg/kg/injection, schedule: Q01DX001 (ip), vehicle: carboxymethylcellulose (CMC) 106 % of control | dose: 400.0 mg/kg/injection, schedule: Q01DX001 (ip), vehicle: carboxymethylcellulose (CMC) 103 % of control

O=C(CC1OCCO1)c1ccccc1
inactive: dose: 50.0 mg/kg/injection, schedule: Q04DX002 (ip), vehicle: saline 95 % of control | dose: 100.0 mg/kg/injection, schedule: Q04DX002 (ip), vehicle: saline 89 % of control | dose: 200.0 mg/kg/injection, schedule: Q04DX002 (ip), vehicle: saline 95 % of control | dose: 400.0 mg/kg/injection, schedule: Q04DX002 (ip), vehicle: saline 95 % of control
